Consider twelve molecules from patent US20260242419A1, “A CYCLIC PEPTIDE FOR TRAPPING INTERLEUKIN-1 BETA” (Merck Sharp & Dohme LLC, priority 2023, published 2026).

The structures appear in SMILES notation. Starred links: 1 amine or outer side, 2 acyl side, 3 side chain; linkers in the order of their positions; H or OH if unused. Non-standard residues stand in square brackets, D forms with d. Residues, ends and D or L forms follow the SMILES beside them. dPro(4R-(4-pyridylmethyl)) = O=C(O)[C@H]1C[C@@H](Cc2ccncc2)CN1; Ala(piperidin-4-yl) = O=C([C@H](CC1CCN([*:3])CC1)N[*:1])[*:2]; Trp(βS-Me,4-F) = C[C@@H](c1c[nH]c2cccc(F)c12)[C@H](N)C(=O)O; Bip(4'-COOH) = N[C@@H](Cc1ccc(-c2ccc(C(=O)O)cc2)cc1)C(=O)O; Ala(1-bicyclo(1.1.1)pentyl) = N[C@@H](CC12CC(C1)C2)C(=O)O; dPro(4R-Bzl(4-F)) = O=C(O)[C@H]1C[C@@H](Cc2ccc(F)cc2)CN1; Ala(morpholin-4-yl) = N[C@@H](CN1CCOCC1)C(=O)O; Ala(piperazin-1-yl) = N[C@@H](CN1CCNCC1)C(=O)O; Ala(pyrimidin-5-yl) = N[C@@H](Cc1cncnc1)C(=O)O; Phe(4-COOH) = N[C@@H](Cc1ccc(C(=O)O)cc1)C(=O)O; Pro(cis-4-F) = O=C(O)[C@@H]1C[C@H](F)CN1; cisHyp = O=C(O)[C@@H]1C[C@H](O)CN1; d(αMeD) = C[C@@](N)(CC(=O)O)C(=O)O; 4Pal = N[C@@H](Cc1ccncc1)C(=O)O; d(αMeS) = C[C@@](N)(CO)C(=O)O; Cba = N[C@@H](CC1CCC1)C(=O)O; αMeK = C[C@](N)(CCCCN)C(=O)O; Dab = NCC[C@H](N)C(=O)O; Aib = CC(C)(N)C(=O)O

T1 sequence (P01584 117-269): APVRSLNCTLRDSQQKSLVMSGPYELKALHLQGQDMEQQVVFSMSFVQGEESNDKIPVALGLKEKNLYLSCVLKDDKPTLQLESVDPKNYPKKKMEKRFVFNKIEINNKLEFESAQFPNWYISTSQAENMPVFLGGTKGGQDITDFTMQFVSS

This assay addresses T1, IL-1β (Homo sapiens, UniProt P01584).
T1 construct: purchased BioLegend 579404
In words: IL-6 assay in MRC5 cells: inhibition of IL-1β induced IL-6 secretion (AlphaLISA). In kind it is cell-based. The settings on record: inhibition of IL-1β induced IL-6 secretion in MRC5 cells; read-out: MRC5 IC50. Summed up:
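Compound was pre-incubated 1 h at ambient temperature with recombinant human IL-1β at 2λ EC80 before adding human lung fibroblast MRC5 cells (3000/well) in EMEM with 0.025% BSA. After overnight culture at 37 °C, 5% CO2, secreted IL-6 in conditioned medium was measured by AlphaLISA; IC50 from 4-parameter logistic fits.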
As to `C[C@@H](c1c[nH]c2cccc(F)c12)[C@@H]1NC(=O)[C@@H]2C[C@H](O)CN2C(=O)CNC(=O)[C@H](Cc2ccc(C(=O)O)cc2)NC(=O)[C@H](Cc2ccncc2)NC(=O)[C@H](Cc2ccc(-c3ccc(C(=O)O)cc3)cc2)NC(=O)[C@H]2C[C@@H](Cc3ccncc3)CN2C(=O)CNC(=O)[C@H](CCN)NC(=O)[C@H](CCC(N)=O)NC(=O)[C@H](Cc2cncnc2)NC(=O)[C@@](C)(CC(=O)O)NC(=O)[C@H](Cc2c[nH]c3ccccc23)NC(=O)[C@H](CO)NC(=O)C(C)(C)NC1=O` [Example 159] (cyclo([Bip(4'-COOH)][4Pal][Phe(4-COOH)]G[cisHyp][Trp(βS-Me,4-F)][Aib]SW[d(αMeD)][Ala(pyrimidin-5-yl)]Q[Dab]G[dPro(4R-(4-pyridylmethyl))])), the IC50 – broadly, the concentration at which inhibition is half-maximal – is 0.013 nM. As for `C[C@@H](c1c[nH]c2cccc(F)c12)[C@@H]1NC(=O)[C@@H]2C[C@H](O)CN2C(=O)CNC(=O)[C@H](Cc2ccc(C(=O)O)cc2)NC(=O)[C@H](CC23CC(C2)C3)NC(=O)[C@H](Cc2ccc(-c3ccc(C(=O)O)cc3)cc2)NC(=O)[C@H]2C[C@@H](Cc3ccncc3)CN2C(=O)CNC(=O)[C@H](CCN)NC(=O)[C@H](CCC(N)=O)NC(=O)[C@H](Cc2cncnc2)NC(=O)[C@@](C)(CC(=O)O)NC(=O)[C@H](Cc2c[nH]c3ccccc23)NC(=O)[C@H](CO)NC(=O)C(C)(C)NC1=O` [Example 160] (cyclo([Bip(4'-COOH)][Ala(1-bicyclo(1.1.1)pentyl)][Phe(4-COOH)]G[cisHyp][Trp(βS-Me,4-F)][Aib]SW[d(αMeD)][Ala(pyrimidin-5-yl)]Q[Dab]G[dPro(4R-(4-pyridylmethyl))])), the figure is 0.023 nM; as for `C[C@@H](c1c[nH]c2cccc(F)c12)[C@@H]1NC(=O)[C@@H]2C[C@H](O)CN2C(=O)CNC(=O)[C@H](Cc2ccc(C(=O)O)cc2)NC(=O)[C@H](Cc2ccncc2)NC(=O)[C@H](Cc2ccc(-c3ccc(C(=O)O)cc3)cc2)NC(=O)[C@H]2C[C@@H](Cc3ccncc3)CN2C(=O)CNC(=O)[C@H](CO)NC(=O)[C@H](CCC(N)=O)NC(=O)[C@H](Cc2cncnc2)NC(=O)[C@@](C)(CC(=O)O)NC(=O)[C@H](Cc2c[nH]c3ccccc23)NC(=O)[C@H](CO)NC(=O)C(C)(C)NC1=O` [Example 161] (cyclo([Bip(4'-COOH)][4Pal][Phe(4-COOH)]G[cisHyp][Trp(βS-Me,4-F)][Aib]SW[d(αMeD)][Ala(pyrimidin-5-yl)]QSG[dPro(4R-(4-pyridylmethyl))])), 0.019 nM; as for `C[C@@H](c1c[nH]c2cccc(F)c12)[C@@H]1NC(=O)[C@@H]2C[C@H](F)CN2C(=O)CNC(=O)[C@H](Cc2ccc(C(=O)O)cc2)NC(=O)[C@H](CC2CCC2)NC(=O)[C@H](Cc2ccc(-c3ccc(C(=O)O)cc3)cc2)NC(=O)[C@H]2C[C@@H](Cc3ccncc3)CN2C(=O)CNC(=O)[C@H](CCN)NC(=O)[C@H](CCC(N)=O)NC(=O)[C@H](Cc2cncnc2)NC(=O)C(C)(C)NC(=O)[C@H](Cc2c[nH]c3ccccc23)NC(=O)[C@H](CO)NC(=O)C(C)(C)NC1=O` [Example 163] (cyclo([Bip(4'-COOH)][Cba][Phe(4-COOH)]G[Pro(cis-4-F)][Trp(βS-Me,4-F)][Aib]SW[Aib][Ala(pyrimidin-5-yl)]Q[Dab]G[dPro(4R-(4-pyridylmethyl))])), 0.03 nM. As for `C[C@@H](c1c[nH]c2cccc(F)c12)[C@@H]1NC(=O)[C@@H]2C[C@H](O)CN2C(=O)CNC(=O)[C@H](Cc2ccc(C(=O)O)cc2)NC(=O)[C@H](CC2CCC2)NC(=O)[C@H](Cc2ccc(-c3ccc(C(=O)O)cc3)cc2)NC(=O)[C@H]2C[C@@H](Cc3ccncc3)CN2C(=O)CNC(=O)[C@H](CCN)NC(=O)[C@H](CCC(N)=O)NC(=O)[C@H](Cc2cncnc2)NC(=O)[C@@](C)(CC(=O)O)NC(=O)[C@H](Cc2c[nH]c3ccccc23)NC(=O)[C@H](CO)NC(=O)C(C)(C)NC1=O` [Example 164] (cyclo([Bip(4'-COOH)][Cba][Phe(4-COOH)]G[cisHyp][Trp(βS-Me,4-F)][Aib]SW[d(αMeD)][Ala(pyrimidin-5-yl)]Q[Dab]G[dPro(4R-(4-pyridylmethyl))])), the figure is 0.039 nM; as for `C[C@@H](c1c[nH]c2cccc(F)c12)[C@@H]1NC(=O)[C@@H]2C[C@H](F)CN2C(=O)CNC(=O)[C@H](Cc2ccc(C(=O)O)cc2)NC(=O)[C@H](CC23CC(C2)C3)NC(=O)[C@H](Cc2ccc(-c3ccc(C(=O)O)cc3)cc2)NC(=O)[C@H]2C[C@@H](Cc3ccc(F)cc3)CN2C(=O)CNC(=O)[C@H](CCN)NC(=O)[C@H](CCC(N)=O)NC(=O)[C@H](CN2CCOCC2)NC(=O)[C@](C)(CCCCN)NC(=O)[C@H](Cc2c[nH]c3ccccc23)NC(=O)[C@H](CCC(=O)O)NC(=O)C(C)(C)NC1=O` [Example 165] (cyclo([Bip(4'-COOH)][Ala(1-bicyclo(1.1.1)pentyl)][Phe(4-COOH)]G[Pro(cis-4-F)][Trp(βS-Me,4-F)][Aib]EW[αMeK][Ala(morpholin-4-yl)]Q[Dab]G[dPro(4R-Bzl(4-F))])), 0.022 nM; as for `C[C@@H](c1c[nH]c2cccc(F)c12)[C@@H]1NC(=O)[C@@H]2C[C@H](F)CN2C(=O)CNC(=O)[C@H](Cc2ccc(C(=O)O)cc2)NC(=O)[C@H](CC23CC(C2)C3)NC(=O)[C@H](Cc2ccc(-c3ccc(C(=O)O)cc3)cc2)NC(=O)[C@H]2C[C@@H](Cc3ccc(F)cc3)CN2C(=O)CNC(=O)[C@H](CCN)NC(=O)[C@H](CCC(N)=O)NC(=O)[C@H](CC2CCNCC2)NC(=O)[C@](C)(CCCCN)NC(=O)[C@H](Cc2c[nH]c3ccccc23)NC(=O)[C@H](CCC(=O)O)NC(=O)C(C)(C)NC1=O` [Example 166] (cyclo([Bip(4'-COOH)][Ala(1-bicyclo(1.1.1)pentyl)][Phe(4-COOH)]G[Pro(cis-4-F)][Trp(βS-Me,4-F)][Aib]EW[αMeK][Ala(piperidin-4-yl)]Q[Dab]G[dPro(4R-Bzl(4-F))])), 0.039 nM.

As for `C[C@@H](c1c[nH]c2cccc(F)c12)[C@@H]1NC(=O)[C@@H]2C[C@H](F)CN2C(=O)CNC(=O)[C@H](Cc2ccc(C(=O)O)cc2)NC(=O)[C@H](CC23CC(C2)C3)NC(=O)[C@H](Cc2ccc(-c3ccc(C(=O)O)cc3)cc2)NC(=O)[C@H]2C[C@@H](Cc3ccc(F)cc3)CN2C(=O)CNC(=O)[C@H](CCN)NC(=O)[C@H](CCC(N)=O)NC(=O)[C@H](CN2CCOCC2)NC(=O)C(C)(C)NC(=O)[C@H](Cc2c[nH]c3ccccc23)NC(=O)[C@H](CO)NC(=O)C(C)(C)NC1=O` [Example 167] (cyclo([Bip(4'-COOH)][Ala(1-bicyclo(1.1.1)pentyl)][Phe(4-COOH)]G[Pro(cis-4-F)][Trp(βS-Me,4-F)][Aib]SW[Aib][Ala(morpholin-4-yl)]Q[Dab]G[dPro(4R-Bzl(4-F))])), the IC50 worked out at 0.013 nM. As for `C[C@@H](c1c[nH]c2cccc(F)c12)[C@@H]1NC(=O)[C@@H]2C[C@H](F)CN2C(=O)CNC(=O)[C@H](Cc2ccc(C(=O)O)cc2)NC(=O)[C@H](CC23CC(C2)C3)NC(=O)[C@H](Cc2ccc(-c3ccc(C(=O)O)cc3)cc2)NC(=O)[C@H]2C[C@@H](Cc3ccc(F)cc3)CN2C(=O)CNC(=O)[C@H](CCN)NC(=O)[C@H](CCC(N)=O)NC(=O)[C@H](CN2CCNCC2)NC(=O)C(C)(C)NC(=O)[C@H](Cc2c[nH]c3ccccc23)NC(=O)[C@H](CO)NC(=O)C(C)(C)NC1=O` [Example 168] (cyclo([Bip(4'-COOH)][Ala(1-bicyclo(1.1.1)pentyl)][Phe(4-COOH)]G[Pro(cis-4-F)][Trp(βS-Me,4-F)][Aib]SW[Aib][Ala(piperazin-1-yl)]Q[Dab]G[dPro(4R-Bzl(4-F))])), the figure is 0.018 nM; as for `C[C@@H](c1c[nH]c2cccc(F)c12)[C@@H]1NC(=O)[C@@H]2C[C@H](F)CN2C(=O)CNC(=O)[C@H](Cc2ccc(C(=O)O)cc2)NC(=O)[C@H](CC23CC(C2)C3)NC(=O)[C@H](Cc2ccc(-c3ccc(C(=O)O)cc3)cc2)NC(=O)[C@H]2C[C@@H](Cc3ccc(F)cc3)CN2C(=O)CNC(=O)[C@H](CCN)NC(=O)[C@H](CCC(N)=O)NC(=O)[C@H](CC2CCNCC2)NC(=O)C(C)(C)NC(=O)[C@H](Cc2c[nH]c3ccccc23)NC(=O)[C@H](CO)NC(=O)C(C)(C)NC1=O` [Example 169] (cyclo([Bip(4'-COOH)][Ala(1-bicyclo(1.1.1)pentyl)][Phe(4-COOH)]G[Pro(cis-4-F)][Trp(βS-Me,4-F)][Aib]SW[Aib][Ala(piperidin-4-yl)]Q[Dab]G[dPro(4R-Bzl(4-F))])), 0.019 nM. As for `C[C@@H](c1c[nH]c2cccc(F)c12)[C@@H]1NC(=O)[C@@H]2C[C@H](F)CN2C(=O)CNC(=O)[C@H](Cc2ccc(C(=O)O)cc2)NC(=O)[C@H](CC23CC(C2)C3)NC(=O)[C@H](Cc2ccc(-c3ccc(C(=O)O)cc3)cc2)NC(=O)[C@H]2C[C@@H](Cc3ccc(F)cc3)CN2C(=O)CNC(=O)[C@H](CCN)NC(=O)[C@H](CCC(N)=O)NC(=O)[C@H](CN2CCOCC2)NC(=O)[C@@](C)(CO)NC(=O)[C@H](Cc2c[nH]c3ccccc23)NC(=O)[C@H](CO)NC(=O)C(C)(C)NC1=O` [Example 170] (cyclo([Bip(4'-COOH)][Ala(1-bicyclo(1.1.1)pentyl)][Phe(4-COOH)]G[Pro(cis-4-F)][Trp(βS-Me,4-F)][Aib]SW[d(αMeS)][Ala(morpholin-4-yl)]Q[Dab]G[dPro(4R-Bzl(4-F))])), the figure is 0.015 nM; as for `C[C@@H](c1c[nH]c2cccc(F)c12)[C@@H]1NC(=O)[C@@H]2C[C@H](F)CN2C(=O)CNC(=O)[C@H](Cc2ccc(C(=O)O)cc2)NC(=O)[C@H](CC23CC(C2)C3)NC(=O)[C@H](Cc2ccc(-c3ccc(C(=O)O)cc3)cc2)NC(=O)[C@H]2C[C@@H](Cc3ccc(F)cc3)CN2C(=O)CNC(=O)[C@H](CCN)NC(=O)[C@H](CCC(N)=O)NC(=O)[C@H](CN2CCNCC2)NC(=O)[C@@](C)(CO)NC(=O)[C@H](Cc2c[nH]c3ccccc23)NC(=O)[C@H](CO)NC(=O)C(C)(C)NC1=O` [Example 171] (cyclo([Bip(4'-COOH)][Ala(1-bicyclo(1.1.1)pentyl)][Phe(4-COOH)]G[Pro(cis-4-F)][Trp(βS-Me,4-F)][Aib]SW[d(αMeS)][Ala(piperazin-1-yl)]Q[Dab]G[dPro(4R-Bzl(4-F))])), 0.016 nM.
